Source: PMC12040169 (PLOS Biology, 2025)
Several values for one entry are separate records, joined by “and”; a condition that tells them apart may be missing. Equal entries are not always repeated.

Key:
HeLa = conditions: bulk resorufin, single well, 28.5 h, 10 µM, Bulk resorufin fluorescence
in vitro = conditions: human, hela cells, % viability

Structure (SMILES)	% viability (HeLa)	viability at 28.5 h, 10 µM (in vitro) [%]
O=C(O)c1ccc(S(=O)(=O)Nc2ccc(O)c(-c3c(O)ccc4ccccc34)c2)cc1 [CBK267667]	94.7%	108
O=C(O)C1CCN(C2CC(=O)N(CCc3ccccc3)C2=O)CC1 (centres unmarked) [CBK269100]	97.3%	97.1
Cc1nn(CC(C)C(=O)O)c(C)c1Br (centres unmarked) [CBK269756]	86.7%	92.4
Cc1ccc(CN2CCNC(=O)C2CC(=O)O)o1 (centres unmarked) [CBK269966]	91.7%	91.8
Cc1c2c(=O)n(-c3ccccc3)[nH]c2cc(=O)n1CCc1ccccc1 [CBK269995]	92.7% and 109%	101
O=C(O)CC1C(=O)NCCN1Cc1cccc(Oc2ccccc2)c1 (centres unmarked) [CBK270023]	103%	91.4
CCC(Sc1nc(C)c(Cc2ccccc2)c(=O)[nH]1)C(=O)O (centres unmarked) [CBK270058]	91.7%	91.2
Cc1nnc2c(N3CCNCC3)nc3ccccc3n12 [CBK270224]	75.4%	89
O=C1CCCc2c1nc(-c1ccccc1Cl)n2O [CBK271948]	82.2%	89.5
CCCC(=O)N1CCC[C@@H](Cn2nc(-c3cccs3)ccc2=O)C1 [CBK282245]	98%	88.5
c1cnc2c(c1)cc([C@@H]1CCCO1)n2CCN1CCCCC1 [CBK282273]	109%	101
CCN(CC)C(=O)Cn1c([C@@H]2CCCO2)cc2cccnc21 [CBK282283]	90.4%	105
C=CCNC(=O)[C@H]1C=CCN1S(=O)(=O)c1ccc(F)cc1 [CBK282320]	89.7%	83.5
O=C(NC1CCCCC1)[C@H]1C=CCN1C(=O)c1ccc(F)cc1 [CBK282324]	86.4%	93.9
CC(C)[C@H](Cn1nc(C2CC2)ccc1=O)NC(=O)Cc1cccs1 [CBK282368]	88.6%	79.7
CC[C@@H](Cn1ncc2ccccc2c1=O)NC(=O)C1CC1 [CBK282385]	91.3%	88.3
O=C(CN1C(=O)[C@H]2CCCN2C(=O)c2ccccc21)N1CCCCC1 [CBK282435]	80.4%	90.6
C=CCNC(=O)Cn1c([C@@H]2CCCO2)cc2cccnc21 [CBK282873]	110%	98.2
C[C@H](Cn1c(C(F)(F)F)cc2cccnc21)NC(=O)c1ccco1 [CBK282933]	94.6%	91.5
CCC(=O)N1CCC[C@H](Cn2nc(-c3cccs3)ccc2=O)C1 [CBK283046]	100%	95.3
C=CCNC(=O)[C@@H]1C=CCN1C(=O)c1ccccc1F [CBK283052]	98.9%	105

Structure (SMILES)	% viability (HeLa)	viability at 28.5 h, 10 µM (in vitro) [%]
CCn1cc(CN2C[C@@H]3CCCN3C[C@@H]2CCSC)cn1 [CBK283181]	106%	86.9
O=C(NC1CCCCC1)[C@H]1C=CCN1C(=O)c1ccccc1F [CBK283334]	98%	85.6
O=C(C1CCC1)N1CCC[C@H]1Cn1nc(-c2cccs2)ccc1=O [CBK284251]	78.8%	80.9
O=C(NC[C@H]1CCCN(C(=O)c2cccnc2)C1)c1cccs1 [CBK284264]	90.3%	81.6
CS(=O)(=O)N1CC=C[C@H]1C(=O)NCc1ccc(F)cc1 [CBK284270]	87.2%	97.6
CC(C)(C)OC(=O)N1CCC[C@H]1C(=O)c1nccs1 [CBK284282]	95.5%	108
CC(C)(C)OC(=O)N1CCC[C@@H]1C(=O)c1cccs1 [CBK284289]	90.7%	100
COc1ccc(NC(=O)[C@@H]2C=CCN2C(=O)c2ccco2)cc1 [CBK284292]	77.2%	88.5
CC[C@H](Cn1ncc2ccccc2c1=O)NC(=O)c1cccs1 [CBK284301]	90.5%	96.7
CC[C@H](Cn1ncc2ccccc2c1=O)NC(=O)Cc1ccsc1 [CBK284306]	88.7%	98.4
CC(C)[C@@H](Cn1nc(C2CC2)ccc1=O)NC(=O)C1CC1 [CBK284309]	85.9%	86.1
C[C@@H](Cn1nnc2ccccc21)NC(=O)C1CC1 [CBK284312]	81.5%	88.5
C=CCNC(=O)[C@@H]1C=CCN1C(=O)c1ccc(OC)cc1 [CBK284317]	76.8%	95.4
O=C(NCCc1ccccc1)[C@@H]1C=CCN1C(=O)c1cccs1 [CBK284320]	92.9%	95.2
C[C@@H](Cn1c(=O)oc2ccccc21)NC(=O)Cc1c[nH]c2ccccc12 [CBK284534]	88.7%	85.7
C[C@@H](Cn1c(=O)oc2ccccc21)NC(=O)Cc1ccsc1 [CBK284535]	84.7%	96.9
C[C@H](Cn1nc2c(cc1=O)CCCCC2)NC(=O)c1ccco1 [CBK284544]	88.3%	84.9
C[C@H](Cn1nc2c(cc1=O)CCCCC2)NC(=O)c1ccccc1F [CBK284547]	91.5%	89.5
C[C@@H]1CN2CCCC2CN1Cc1cccc2cccnc12 (some centres unmarked) [CBK284551]	87.8%	82.4
C[C@@H]1CN2C[C@H](O)CC2CN1Cc1ccc2c3ccccc3n(C)c2c1 (some centres unmarked) [CBK284554]	102%	91.5
C[C@H](Cn1nc2c(cc1=O)CCCCC2)NC(=O)c1ccc(F)cc1 [CBK284557]	93.4%	98.4

Structure (SMILES)	% viability (HeLa)	viability at 28.5 h, 10 µM (in vitro) [%]
C[C@H](Cn1nc2c(cc1=O)CCCCC2)NC(=O)c1cccc(F)c1 [CBK284558]	90%	85.8
C[C@H]1CN2C[C@H](O)CC2CN1Cc1cccc(Oc2ccccc2)c1 (some centres unmarked) [CBK284566]	96.2%	93.6
Cn1cc(C(=O)N2C3CCC(C3)[C@@H]2COc2ccc(F)cc2)cn1 (some centres unmarked) [CBK284605]	112%	93.7
O[C@@H]1C[C@H]2CN(Cc3ccsc3)[C@@H](Cc3ccccc3)CN2C1 [CBK285376]	95.8%	91.9
COC(=O)c1ccc(CN2CC3CCCN3C[C@@H]2C)cc1 (some centres unmarked) [CBK285403]	103%	111
C[C@H]1CN2C[C@H](O)CC2CN1Cc1ccc(Cl)c(Cl)c1 (some centres unmarked) [CBK285404]	94.3%	111
C[C@@H]1CN2CCCC2CN1Cc1ccc(N(C)C)cc1 (some centres unmarked) [CBK285406]	102%	101
Cc1ccc(CN2CC3CCCN3C[C@H]2C)o1 (some centres unmarked) [CBK285407]	104%	87.1
C[C@@H]1CN2CCCC2CN1Cc1ccc2ccccc2n1 (some centres unmarked) [CBK285408]	104%	101
COc1ccccc1CN1CC2CCCN2C[C@H]1C (some centres unmarked) [CBK285409]	106%	90.6
C[C@@H]1CN2CCCC2CN1Cc1ccc(Br)o1 (some centres unmarked) [CBK285410]	101%	99.7
COc1ccc(CN2CC3CCCN3C[C@H]2C)cc1 (some centres unmarked) [CBK285412]	103%	111
C[C@H]1CN2CCCC2CN1Cc1cccc(F)c1 (some centres unmarked) [CBK285425]	104%	97.7
CCCn1ncc(CN2C[C@@H]3CCCN3C[C@@H]2CCSC)c1C [CBK285426]	107%	104
CCCCn1cc(CN2CC3CCCN3C[C@H]2C)c(C)n1 (some centres unmarked) [CBK285433]	98.7%	92.9
C[C@H]1CN2CCCC2CN1Cc1ccc(CN(C)C)cc1 (some centres unmarked) [CBK285438]	101%	88.9
C=Cn1ncc(CN2C[C@@H]3CCCN3C[C@H]2CCSC)c1C [CBK285440]	101%	99.4
C[C@@H]1CN2CCCC2CN1CC1CC=CCC1 (some centres unmarked) [CBK285441]	99.9%	99.1
COc1cccc(CN2CC3CCCN3C[C@H]2C)c1 (some centres unmarked) [CBK285442]	105%	113
